Measurements from US9963455B2, “Pyrazolo[1,5-a]pyrimidines as antiviral compounds” (Curovir AB, priority 2014, dated 2018).

Legend:
Format in all cases: cell-based
polio virus strain 1 = assay: organism not typed; settings: read-out: % inh.
Ljungan virus strain 145 = assay: CPE inhibition in mammalian cell culture, LV145; settings: Parechovirus B; LV145, Conc. 10.0 μM
[1] = system: coxsackie B virus strain 2; assay: CPE inhibition in mammalian cell culture, Cox-B2; settings: read-out: % inh.

With `CCCc1cc(NCCCn2ccnc2)n2nc(C)c(-c3ccccc3)c2n1` [Ex. 24, N-(3-imidazol-1-ylpropyl)-2-methyl-3-phenyl-5-propyl-pyrazolo[1,5-a]pyrimidin-7-amine] the inhibition at 10 µM (polio virus strain 1) was 86%.

For `Cc1cc(NC2CCCC2)n2nc(C)c(-c3ccc(F)cc3)c2n1` [Ex. 38, N-cyclopentyl-3-(4-fluorophenyl)-2,5-dimethyl-pyrazolo[1,5-a]pyrimidin-7-amine], the inhibition at 10 µM (Ljungan virus strain 145) was 84%.

`Cc1cc(NCc2cccnc2)n2nc(C)c(-c3cccs3)c2n1` [Ex. 69, 2,5-dimethyl-N-(3-pyridylmethyl)-3-(2-thienyl)pyrazolo[1,5-a]pyrimidin-7-amine] showed an inhibition at 10 µM [1] of 65%.

Work on `Cc1cc(NCCCn2ccnc2)n2nc(C)c(-c3ccc(Cl)cc3)c2n1` [Ex. 44, 3-(4-chlorophenyl)-N-(3-imidazol-1-ylpropyl)-2,5-dimethyl-pyrazolo[1,5-a]pyrimidin-7-amine] yielded an inhibition at 1 µM (polio virus strain 1) of 70%.

`CCCCc1ccc(Nc2cc(C)nc3c(-c4ccc(OC)c(OC)c4)c(C)nn23)cc1` [Ex. 63, N-(4-butylphenyl)-3-(3,4-dimethoxyphenyl)-2,5-dimethyl-pyrazolo[1,5-a]pyrimidin-7-amine] showed an inhibition at 1 µM (polio virus strain 1) of 87%.

`COc1ccc(-c2c(C)nn3c(Nc4ccc(Br)cc4)cc(C)nc23)cc1OC` [Ex. 46, N-(4-bromophenyl)-3-(3,4-dimethoxyphenyl)-2,5-dimethyl-pyrazolo[1,5-a]pyrimidin-7-amine] was tested, and the inhibition at 10 µM (Ljungan virus strain 145) was 92%.

Molecule `COc1ccc(-c2c(C)nn3c(Nc4cccc(C)c4)cc(C)nc23)cc1OC` [Ex. 50, 3-(3,4-dimethoxyphenyl)-2,5-dimethyl-N-(m-tolyl)pyrazolo[1,5-a]pyrimidin-7-amine] has an inhibition at 1 µM (polio virus strain 1) of 81%.

With `COc1ccc(-c2c(C)nn3c(NCCCn4ccnc4)cc(C)nc23)cc1` [Ex. 67, N-(3-imidazol-1-ylpropyl)-3-(4-methoxyphenyl)-2,5-dimethyl-pyrazolo[1,5-a]pyrimidin-7-amine] the inhibition at 1 µM (polio virus strain 1) was 63%.

Work on `CCOc1ccc(Nc2cc(C)nc3c(-c4ccc(OC)c(OC)c4)c(C)nn23)cc1` [Ex. 54, 3-(3,4-dimethoxyphenyl)-N-(4-ethoxyphenyl)-2,5-dimethyl-pyrazolo[1,5-a]pyrimidin-7-amine] yielded an inhibition at 1 µM (polio virus strain 1) of 89%.

In the case of `COc1ccc(-c2c(C)nn3c(NCc4cccnc4)cc(C)nc23)cc1` [Ex. 65, 3-(4-methoxyphenyl)-2,5-dimethyl-N-(3-pyridylmethyl)pyrazolo[1,5-a]pyrimidin-7-amine], the inhibition at 1 µM [1] is reported as 91%.

With `Cc1cc(NCc2ccc(F)cc2)n2nc(C)c(-c3ccc(F)c(F)c3)c2n1` [Ex. 106, 3-(3,4-difluorophenyl)-N-[(4-fluorophenyl)methyl]-2,5-dimethyl-pyrazolo[1,5-a]pyrimidin-7-amine] the inhibition at 10 µM (Ljungan virus strain 145) was 100%.

In the case of `Cc1cc(NCc2ccccc2)n2ncc(-c3ccccc3)c2n1` [Ex. 21, N-benzyl-5-methyl-3-phenyl-pyrazolo[1,5-a]pyrimidin-7-amine], the inhibition at 10 µM (polio virus strain 1) is reported as 78%.

Molecule `CC(C)(C)c1cc(NCCCn2ccnc2)n2ncc(-c3ccccc3)c2n1` [Ex. 23, 5-tert-butyl-N-(3-imidazol-1-ylpropyl)-3-phenyl-pyrazolo[1,5-a]pyrimidin-7-amine] has an inhibition at 10 µM (polio virus strain 1) of 94%.

`CCc1nn2c(NCCCn3ccnc3)cc(C)nc2c1-c1ccccc1` [Ex. 31, 2-ethyl-N-(3-imidazol-1-ylpropyl)-5-methyl-3-phenyl-pyrazolo[1,5-a]pyrimidin-7-amine] showed an inhibition at 10 µM (Ljungan virus strain 145) of 14%.

With `COc1ccc(-c2c(C)nn3c(NCCc4ccncc4)cc(C)nc23)cc1OC` [Ex. 89, 3-(3,4-dimethoxyphenyl)-2,5-dimethyl-N-[2-(4-pyridyl)ethyl]pyrazolo[1,5-a]pyrimidin-7-amine] the inhibition at 1 µM [1] was 100%.

For `COc1ccc(-c2c(C)nn3c(Nc4ccc(C)cc4)cc(C)nc23)cc1OC` [Ex. 48, 3-(3,4-dimethoxyphenyl)-2,5-dimethyl-N-(p-tolyl)pyrazolo[1,5-a]pyrimidin-7-amine], the inhibition at 1 µM (polio virus strain 1) was 79%.

For `Cc1cc(NCCc2ccccc2)n2ncc(-c3ccc(Cl)cc3)c2n1` [Ex. 26, 3-(4-chlorophenyl)-5-methyl-N-phenethyl-pyrazolo[1,5-a]pyrimidin-7-amine], the inhibition at 10 µM [1] was 30%.

`COc1ccc(-c2c(C)nn3c(Nc4ccc(NC(C)=O)cc4)cc(C)nc23)cc1OC` [Ex. 58, N-[4-[[3-(3,4-dimethoxyphenyl)-2,5-dimethyl-pyrazolo[1,5-a]pyrimidin-7-yl]amino]phenyl]acetamide] showed an inhibition at 0.1 µM (polio virus strain 1) of 74%.

`Cc1ccc(CCNc2cc(C)nc3c(-c4ccc(Cl)cc4)c(C)nn23)cc1` [Ex. 32, 3-(4-chlorophenyl)-2,5-dimethyl-N-[2-(p-tolyl)ethyl]pyrazolo[1,5-a]pyrimidin-7-amine] showed an inhibition at 10 µM (polio virus strain 1) of 25%.

`COc1ccc(Nc2cc(C)nc3c(-c4ccc(OC)c(OC)c4)c(C)nn23)cc1` [Ex. 49, 3-(3,4-dimethoxyphenyl)-N-(4-methoxyphenyl)-2,5-dimethyl-pyrazolo[1,5-a]pyrimidin-7-amine] showed an inhibition at 1 µM [1] of 80%.

`Cc1cc(NCCc2ccccc2)n2nc(C)c(-c3ccc(F)cc3)c2n1` [Ex. 14, 3-(4-fluorophenyl)-2,5-dimethyl-N-phenethyl-pyrazolo[1,5-a]pyrimidin-7-amine] showed an inhibition at 10 µM (polio virus strain 1) of 73%.

With `COc1ccc(CCNc2cc(C)nc3c(-c4ccccc4)cnn23)cc1OC` [Ex. 22, N-[2-(3,4-dimethoxyphenyl)ethyl]-5-methyl-3-phenyl-pyrazolo[1,5-a]pyrimidin-7-amine] the inhibition at 10 µM [1] was 44%.

Work on `COc1ccc(-c2c(C)nn3c(NCCc4ccccn4)cc(C)nc23)cc1` [Ex. 68, 3-(4-methoxyphenyl)-2,5-dimethyl-N-[2-(2-pyridyl)ethyl]pyrazolo[1,5-a]pyrimidin-7-amine] yielded an inhibition at 10 µM (Ljungan virus strain 145) of 86%.

Work on `COc1ccc(-c2c(C)nn3c(NCc4ccnc(C)n4)cc(C)nc23)cc1OC` [Ex. 87, 3-(3,4-dimethoxyphenyl)-2,5-dimethyl-N-[(2-methylpyrimidin-4-yl)methyl]pyrazolo[1,5-a]pyrimidin-7-amine] yielded an inhibition at 0.1 µM (polio virus strain 1) of 100%.

`Cc1cc(NCc2ccccc2)n2ncc(-c3ccc(F)cc3)c2n1` [Ex. 18, N-benzyl-3-(4-fluorophenyl)-5-methyl-pyrazolo[1,5-a]pyrimidin-7-amine] was tested, and the inhibition at 10 µM (polio virus strain 1) was 51%.

With `Cc1cc(NCCCn2ccnc2)n2nc(C)c(-c3cccs3)c2n1` [Ex. 71, N-(3-imidazol-1-ylpropyl)-2,5-dimethyl-3-(2-thienyl)pyrazolo[1,5-a]pyrimidin-7-amine] the inhibition at 10 µM (polio virus strain 1) was 72%.

Molecule `COc1ccc(CCNc2cc(C)nc3c(-c4ccc(C)cc4)cnn23)cc1OC` [Ex. 29, N-[2-(3,4-dimethoxyphenyl)ethyl]-5-methyl-3-(p-tolyl)pyrazolo[1,5-a]pyrimidin-7-amine] has an inhibition at 10 µM [1] of 62%.

With `Cc1cc(NCc2ccccn2)n2nc(C)c(-c3ccc(Cl)cc3)c2n1` [Ex. 42, 3-(4-chlorophenyl)-2,5-dimethyl-N-(2-pyridylmethyl)pyrazolo[1,5-a]pyrimidin-7-amine] the inhibition at 1 µM (polio virus strain 1) was 96%.

Work on `COc1ccc(-c2c(C)nn3c(Nc4cc(Cl)cc(Cl)c4)cc(C)nc23)cc1OC` [Ex. 64, N-(3,5-dichlorophenyl)-3-(3,4-dimethoxyphenyl)-2,5-dimethyl-pyrazolo[1,5-a]pyrimidin-7-amine] yielded an inhibition at 1 µM (polio virus strain 1) of 20%.

Work on `COc1ccc(CCNc2cc(C)nc3c(-c4ccc(Cl)cc4)cnn23)cc1OC` [Ex. 27, 3-(4-chlorophenyl)-N-[2-(3,4-dimethoxyphenyl)ethyl]-5-methyl-pyrazolo[1,5-a]pyrimidin-7-amine] yielded an inhibition at 10 µM (polio virus strain 1) of 35%.

`Cc1cc(NCCCn2ccnc2)n2ncc(-c3ccc(Cl)cc3)c2n1` [Ex. 28, 3-(4-chlorophenyl)-N-(3-imidazol-1-ylpropyl)-5-methyl-pyrazolo[1,5-a]pyrimidin-7-amine] gave an inhibition at 10 µM (polio virus strain 1) of 72%.

Molecule `Cc1cc(NCc2ccccn2)n2nc(C)c(-c3ccc(F)cc3)c2n1` [Ex. 37, 3-(4-fluorophenyl)-2,5-dimethyl-N-(2-pyridylmethyl)pyrazolo[1,5-a]pyrimidin-7-amine] has an inhibition at 10 µM [1] of 78%.

For `CCc1ccc(Nc2cc(C)nc3c(-c4ccc(OC)c(OC)c4)c(C)nn23)cc1` [Ex. 62, 3-(3,4-dimethoxyphenyl)-N-(4-ethylphenyl)-2,5-dimethyl-pyrazolo[1,5-a]pyrimidin-7-amine], the inhibition at 1 µM (polio virus strain 1) was 97%.

Molecule `Cc1cc(NCc2ccncc2)n2nc(C)c(-c3cccs3)c2n1` [Ex. 70, 2,5-dimethyl-N-(4-pyridylmethyl)-3-(2-thienyl)pyrazolo[1,5-a]pyrimidin-7-amine] has an inhibition at 10 µM (polio virus strain 1) of 89%.

`COC(=O)c1ccc(-c2c(C)nn3c(NCc4ccc(F)cc4)cc(C)nc23)cc1` [Ex. 107, methyl 4-[7-[(4-fluorophenyl)methylamino]-2,5-dimethyl-pyrazolo[1,5-a]pyrimidin-3-yl]benzoate] showed an inhibition at 1 µM (polio virus strain 1) of 21%.

With `COc1ccc(-c2c(C)nn3c(NCc4ccncc4)cc(C)nc23)cc1` [Ex. 66, 3-(4-methoxyphenyl)-2,5-dimethyl-N-(4-pyridylmethyl)pyrazolo[1,5-a]pyrimidin-7-amine] the inhibition at 0.01 µM (polio virus strain 1) was 100%.

For `COc1ccc(-c2c(C)nn3c(Nc4ccc(F)cc4)cc(C)nc23)cc1OC` [Ex. 53, 3-(3,4-dimethoxyphenyl)-N-(4-fluorophenyl)-2,5-dimethyl-pyrazolo[1,5-a]pyrimidin-7-amine], the inhibition at 10 µM (polio virus strain 1) was 84%.

With `COc1ccc(CCNc2cc(C)nc3c(-c4ccc(F)cc4)c(C)nn23)cc1OC` [Ex. 15, N-[2-(3,4-dimethoxyphenyl)ethyl]-3-(4-fluorophenyl)-2,5-dimethyl-pyrazolo[1,5-a]pyrimidin-7-amine] the inhibition at 10 µM (polio virus strain 1) was 75%.

Molecule `Cc1cc(NCc2cccnc2)n2nc(C)c(-c3ccccc3)c2n1` [Ex. 39, 2,5-dimethyl-3-phenyl-N-(3-pyridylmethyl)pyrazolo[1,5-a]pyrimidin-7-amine] has an inhibition at 1 µM (polio virus strain 1) of 71%.

Molecule `COc1ccc(-c2c(C)nn3c(Nc4ccc(Cl)c(Cl)c4)cc(C)nc23)cc1OC` [Ex. 59, N-(3,4-dichlorophenyl)-3-(3,4-dimethoxyphenyl)-2,5-dimethyl-pyrazolo[1,5-a]pyrimidin-7-amine] has an inhibition at 10 µM [1] of 88%.

`CCOc1ccc(-c2c(C)nn3c(NCc4ccc(F)cc4)cc(C)nc23)cc1OCC` [Ex. 109, 3-(3,4-diethoxyphenyl)-N-[(4-fluorophenyl)methyl]-2,5-dimethyl-pyrazolo[1,5-a]pyrimidin-7-amine] was tested, and the inhibition at 1 µM (polio virus strain 1) was 88%.
